Data: US5585367A (priority 1990, dated 1996)
In brackets after ≈: the same amount, converted by molar mass. Where two headings read alike, the source gives them in different places.

What was measured:
[1] = tested on: genes "GAG", "LTR" and "ENV" of the HIV-1 provirus; assay: Integration of viral genome into chromosomic DNA of Supt-1 cells (PCR); type: cell-based; conditions: 35 μgr/ml; virus incubated for 15 minutes
Description: By means of a genetic amplification through a thermostable polymerase, the presence of genes "GAG", "LTR" and "ENV" of the HIV-1 provirus is evidenced. This method is called P.C.R. Polymerase chain Reaction) (Chin-Yih Ou et al., Sciences 239, 295-297, 1988).
Said method is applied for detecting HIV-1 provirus in the genome of Supt-1 cells inoculated with HIV-1 virus incubated with […] (dilution 1/100), as described in Example 8
Amplified oligonucleotides, UV visible by means of ethidium bromide appear only in the tubes corresponding to an inoculation with HIV-1 viruses which were not treated with the active substance.
One proceeds as in Example 11(c). The search of genes "GAG", "LTR" and "ENV" has been made in cellular cultures inoculated with a virus incubated for 15 minutes with the active substance. This search is appeared as being negative, and thus it can be concluded that 1.1'-azobisformamide at the dosage of 35 μgr/ml protects the cells against infection by HIV-1.
Examples 10c and 11c disclose a more accurate method than the ELISA test for examining whether the inoculated cells contain HIV-1 at the end of the assay, i.e., the PCR-Method.

[2] = single dose of 3 g, one volunteer
[3] = tested on: HIV-1 Wild B; assay: Inhibition of HIV replication in PBL's; type: cell-based; conditions: Human immunodeficiency virus 1
[4] = tested on: Supt-1 cells
[5] = tested on: HIV-2 ROD; assay: Inhibition of HIV replication in MT4 cells; type: cell-based; conditions: 0.4 μgr/ml to 250.0 μgr/ml
[6] = Tolerability and effectiveness of single doses; type: in vivo, human; conditions: single doses of between 7 and 140 mg per kg body weight
[7] = tested on: VERO cells
[8] = tested on: HIV-1; type: cell-based
[9] = tested on: HIV-1; type: cell-based; remark: listed apart in the source
[10] = B. L. OSER et al. (1965); cited from earlier work
[11] = tested on: T4 lymphocytes; assay: Treatment of three patients presenting different stages of AIDS; type: in vivo, human
Description: (§1) Three sound volunteers were treated for 30 days with 1500 mgr a day of a azobisformamide in three portions of 500 mgr.
On the other handy three patients presenting different stages of AIDS were also treated with azobisformamide in the same dosages as he sound volunteers.
The first patient in final phase presented at least 30 T4 lymphocytes/mm^3, abundant diarrheas and a complete space-time disorientation.
The second patient in "ARC" phase presented a lymphocytar T4 population of 190/ mm^3, in constant decrease, as well as occasional diarrheas and anal herpes.

[12] = clinical; conditions: human, in vivo, po
[13] = tested on: CD4 lymphocyte; assay: Treatment of four patients with advanced AIDS, CD4 lymphocyte counts (FIG. 1); type: in vivo, human; conditions: all dosage regimens combined
Description: Four patients with advanced AIDS have been treated with ADA. One patient has been treated during two periods, i.e., treated was restarted after a return to baseline subsequent to the withdrawal of ADA. The patients received capsules containing 500 mg. The dosage regimen was 500 mg three times a day except during the second treatment period in the patient who is also the patient of Example 27 where the dosage regimen was increased to 1 gram three times a day. The graph represents the median value of all CD4 lymphocyte counts measured in the patients. All dosage regimens are combined. There were five periods of ADA treatment. Due to the small number of values, medians were calculated by carrying forward the last values of the patients with no data point in the corresponding treatment week. Values of patients who dropped out of the study were carried forward. The linear regression is represented by the equation Y=77.2 +4.8 X, where Y is the absolute CD4 […] and X is the number of weeks after start of ADA treatment. The correlation coefficient is 0.79.

[14] = tested on: HIV-1 Wild E; assay: Inhibition of HIV replication in PBL's; type: cell-based; conditions: Human immunodeficiency virus 1
[15] = Treatment of three sound volunteers for 30 days; type: in vivo, human; conditions: 1500 mgr a day (three portions of 500 mgr)
Description: as §1

[16] = clinical; conditions: human, in vivo, po; remark: listed apart in the source
[17] = tested on: HIV; assay: Inhibition of HIV replication, summary over strains and cells; type: cell-based, HIV-1 and HIV-2; conditions: Human immunodeficiency virus 1, p24, 7 to 8 days after infection
[18] = tested on: HIV-1 LAI/IIIB; assay: Inhibition of HIV replication in MT4 cells; type: cell-based
[19] = tested on: HIV-1 Wild A; assay: Inhibition of HIV replication in PBL's; type: cell-based; conditions: Human immunodeficiency virus 1

With NC(=O)N=NC(N)=O [ADA, 1,1'-azobisformamide] the “search of genes "GAG", "LTR" and "ENV"” value [1] was “negative”, the absorption and excretion [2] was “can be absorbed and even excreted in its active form” and the IC50 [3] was 11.6 µg/mL (≈ 99.9 µM). The IC90 [3] was 18.6 µg/mL (≈ 160 µM), the “toxical effect on Supt-1 cells” value [4] was “No toxical effect has been noted” and the “inhibition of the replication of HIV-2 (ROD)” value [5] was “inhibits the replication”. The tolerability and effectiveness [6] was “tolerable and effective”, the “toxicity against VERO cells” value [7] was “No toxicity against VERO cells was observed” and the flu-like syndrome (140 mg/kg, from 6 hours after intake, lasted several hours) was “flu-like syndrome was observed”. For the same compound, the “adverse effects such as changes in hemodynamic parameters or subjective well-being” value (lower doses (35 and 70 mg/kg)) was “No adverse effects”, the “protection of cellular cultures against the infectious power of HIV-1” value [8] was “protects the cellular cultures against the infectious power of HIV-1” and the cytopathogenic effect [9] was “No cytopathogenic effect has been observed”. The “toxicity for the humans” value [10] was “absence of toxicity”, the coherent talking ([11]; first patient, day 30) was “recovered their possibility of coherent talking” and the diarrhea ([11]; first patient, day 30) was “the diarrhea has ended”. For the same compound, the walking autonomy ([11]; first patient, day 30) was “limited walking autonomy”, the “lymphocytes presenting the T4 receptor” value ([11]; first patient, day 30, day 0: 5%) was 9% and the “lymphocytes, % of white corpuscules” value ([11]; first patient, day 30, day 0: 17%) was 20%. For the same compound, the white corpuscules ([11]; first patient, day 30, day 0: 1850) was 2600, the “improvement of T4 lymphocytes” value ([11]; first patient, day 30 vs day 0) was 100% and the T4 lymphocytes ([11]; second patient ("ARC" phase), day 30, before: 190) was 280 T4 lymphocytes/ mm^3. For the same compound, the “diarrhea and anal herpes” value ([11]; second patient, day 30) was “the diarrhea had completely disappeared as well as the anal herpes”, the T4 lymphocytes ([11]; third patient (sound seropositive), day 30, before: 350) was 440 T4 lymphocytes/ mm^3 and the Tmax [12] was 1 to 1.5 h. For the same compound, the “correlation coefficient of the CD4 regression” value [13] was 0.79, the IC50 [14] was 8.3 µg/mL (≈ 71.5 µM) and the IC90 [14] was 18.4 µg/mL (≈ 159 µM). The hematological parameters [15] was “remained perfectly normal”, the secondary effect [15] was “No secondary effect was reported” and the MTD [16] was 140 mg/kg. For the same compound, the IC50 ([17]; read-out: IC50 range) was 1.6 to 14.8 µg/mL (≈ 13.8 to 127 µM), the IC50 ([17]; read-out: median IC50) was 8 µg/mL (≈ 68.9 µM) and the IC50 ([18]; Human immunodeficiency virus 1, IIIB, MT4, MT4 cells infected with HIV-1 strain LAI/IIIB, read-out: lowest observed IC50) was 1.6 µg/mL (≈ 13.8 µM). The “inhibition of the replication of HIV-1” value ([18]; MT4 cells, 0.4 μgr/ml to 250.0 μgr/ml) was “inhibits the replication”, the IC50 [19] was 8.9 µg/mL (≈ 76.7 µM) and the IC90 [19] was 17.4 µg/mL (≈ 150 µM).
